According to the NIST ThermoML archive (doi:10.1016/j.jct.2019.02.011):
± gives the expanded uncertainty stated by the source.

Assay: xn = mol fraction of the nth substance listed
Settings: Liquid, Vibrating tube method

COC(=O)OC [dimethyl carbonate] + CO
mass density [kg/m3]
Settings | 100 kPa | 5000 kPa | 10000 kPa | 15000 kPa | 20000 kPa | 25000 kPa | 30000 kPa | 35000 kPa | 40000 kPa
303.15 K, x1 = 0.0253 | – | – | – | – | – | – | – | 825.6 ± 1.4 | 829 ± 1.4
303.15 K, x1 = 0.0503 | – | – | – | – | – | – | – | 839.12 ± 1.4 | 842.54 ± 1.4
303.15 K, x1 = 0.0745 | – | – | – | – | – | – | – | 851.58 ± 1.4 | 855.01 ± 1.4
303.15 K, x1 = 0.101 | – | – | – | – | – | – | – | 864.54 ± 1.4 | 867.99 ± 1.4
303.15 K, x1 = 0.1502 | – | – | – | – | – | – | – | 886.72 ± 1.4 | 890.21 ± 1.4
303.15 K, x1 = 0.2059 | – | – | – | – | – | – | – | 909.73 ± 1.4 | 913.3 ± 1.4
303.15 K, x1 = 0.25 | – | – | – | – | – | – | – | 926.34 ± 1.4 | 929.93 ± 1.4
303.15 K, x1 = 0.3004 | – | – | – | – | – | – | – | 943.76 ± 1.5 | 947.37 ± 1.5
303.15 K, x1 = 0.3426 | – | – | – | – | – | – | – | 957.21 ± 1.5 | 960.84 ± 1.5
303.15 K, x1 = 0.3984 | – | – | – | – | – | – | – | 973.63 ± 1.5 | 977.28 ± 1.5
303.15 K, x1 = 0.4514 | – | – | – | – | – | – | – | 987.95 ± 1.5 | 991.62 ± 1.5
303.15 K, x1 = 0.5054 | – | – | – | – | – | – | – | 1001.4 ± 1.5 | 1005.09 ± 1.5
303.15 K, x1 = 0.5509 | – | – | – | – | – | – | – | 1011.94 ± 1.5 | 1015.64 ± 1.5
303.15 K, x1 = 0.6002 | – | – | – | – | – | – | – | 1022.49 ± 1.5 | 1026.2 ± 1.5
303.15 K, x1 = 0.6469 | – | – | – | – | – | – | – | 1031.7 ± 1.5 | 1035.43 ± 1.5
303.15 K, x1 = 0.6993 | – | – | – | – | – | – | – | 1041.37 ± 1.5 | 1045.11 ± 1.5
303.15 K, x1 = 0.7496 | – | – | – | – | – | – | – | 1050.01 ± 1.5 | 1053.76 ± 1.5
303.15 K, x1 = 0.799 | – | – | – | – | – | – | – | 1058.05 ± 1.6 | 1061.82 ± 1.6
303.15 K, x1 = 0.837 | – | – | – | – | – | – | 1060.13 ± 1.6 | 1063.82 ± 1.6 | 1067.59 ± 1.6
303.15 K, x1 = 0.9093 | – | – | – | – | – | – | 1070.62 ± 1.6 | 1074.26 ± 1.6 | 1078.04 ± 1.6
303.15 K, x1 = 0.9239 | – | – | – | – | – | – | 1072.65 ± 1.6 | 1076.3 ± 1.6 | 1080.08 ± 1.6
303.15 K, x1 = 0.9575 | – | – | – | – | – | – | 1077.23 ± 1.6 | 1080.88 ± 1.6 | 1084.67 ± 1.6
303.15 K, x1 = 0.9861 | – | – | – | – | – | – | 1081.06 ± 1.6 | 1084.71 ± 1.6 | 1088.51 ± 1.6
303.15 K, x1 = 1 | – | – | – | – | – | – | 1082.9 ± 0.61 | 1086.6 ± 0.63 | 1090.4 ± 0.64
308.15 K, x1 = 0.0253 | 791.22 ± 1.4 | 795.98 ± 1.4 | 800.77 ± 1.4 | 805.37 ± 1.4 | 809.72 ± 1.4 | 814 ± 1.4 | 817.9 ± 1.4 | 821.58 ± 1.4 | 825.25 ± 1.4
308.15 K, x1 = 0.0503 | 804.54 ± 1.4 | 809.3 ± 1.4 | 814.1 ± 1.4 | 818.7 ± 1.4 | 823.06 ± 1.4 | 827.34 ± 1.4 | 831.25 ± 1.4 | 834.92 ± 1.4 | 838.6 ± 1.4
308.15 K, x1 = 0.0745 | 816.8 ± 1.4 | 821.56 ± 1.4 | 826.37 ± 1.4 | 831.02 ± 1.4 | 835.38 ± 1.4 | 839.68 ± 1.4 | 843.59 ± 1.4 | 847.26 ± 1.4 | 850.9 ± 1.4
308.15 K, x1 = 0.101 | 829.61 ± 1.4 | 834.41 ± 1.4 | 839.23 ± 1.4 | 843.89 ± 1.4 | 848.26 ± 1.4 | 852.56 ± 1.4 | 856.52 ± 1.4 | 860.19 ± 1.4 | 863.84 ± 1.4
308.15 K, x1 = 0.1502 | 851.5 ± 1.4 | 856.36 ± 1.4 | 861.2 ± 1.4 | 865.86 ± 1.4 | 870.28 ± 1.4 | 874.59 ± 1.4 | 878.57 ± 1.4 | 882.29 ± 1.4 | 885.94 ± 1.4
308.15 K, x1 = 0.2059 | 874.17 ± 1.4 | 879.02 ± 1.4 | 883.88 ± 1.4 | 888.55 ± 1.4 | 892.98 ± 1.4 | 897.3 ± 1.4 | 901.3 ± 1.4 | 905.01 ± 1.4 | 908.67 ± 1.4
308.15 K, x1 = 0.25 | 890.57 ± 1.4 | 895.46 ± 1.4 | 900.33 ± 1.4 | 905.01 ± 1.4 | 909.44 ± 1.4 | 913.77 ± 1.4 | 917.78 ± 1.4 | 921.49 ± 1.4 | 925.16 ± 1.4
308.15 K, x1 = 0.3004 | 907.81 ± 1.4 | 912.71 ± 1.4 | 917.59 ± 1.4 | 922.27 ± 1.4 | 926.71 ± 1.4 | 931.05 ± 1.4 | 935.06 ± 1.4 | 938.77 ± 1.4 | 942.45 ± 1.5
308.15 K, x1 = 0.3426 | 921.16 ± 1.4 | 926.05 ± 1.4 | 930.95 ± 1.4 | 935.63 ± 1.4 | 940.07 ± 1.4 | 944.37 ± 1.5 | 948.39 ± 1.5 | 952.1 ± 1.5 | 955.78 ± 1.5
308.15 K, x1 = 0.3984 | 937.46 ± 1.4 | 942.41 ± 1.4 | 947.31 ± 1.5 | 952 ± 1.5 | 956.44 ± 1.5 | 960.75 ± 1.5 | 964.78 ± 1.5 | 968.49 ± 1.5 | 972.13 ± 1.5
308.15 K, x1 = 0.4514 | 951.72 ± 1.5 | 956.66 ± 1.5 | 961.58 ± 1.5 | 966.27 ± 1.5 | 970.72 ± 1.5 | 975.04 ± 1.5 | 979.08 ± 1.5 | 982.78 ± 1.5 | 986.43 ± 1.5
308.15 K, x1 = 0.5054 | 965.11 ± 1.5 | 970.05 ± 1.5 | 974.93 ± 1.5 | 979.62 ± 1.5 | 984.08 ± 1.5 | 988.4 ± 1.5 | 992.45 ± 1.5 | 996.15 ± 1.5 | 999.81 ± 1.5
308.15 K, x1 = 0.5509 | 975.56 ± 1.5 | 980.5 ± 1.5 | 985.39 ± 1.5 | 990.08 ± 1.5 | 994.54 ± 1.5 | 998.87 ± 1.5 | 1002.92 ± 1.5 | 1006.62 ± 1.5 | 1010.28 ± 1.5
308.15 K, x1 = 0.6002 | 986.01 ± 1.5 | 990.95 ± 1.5 | 995.85 ± 1.5 | 1000.49 ± 1.5 | 1004.95 ± 1.5 | 1009.29 ± 1.5 | 1013.4 ± 1.5 | 1017.09 ± 1.5 | 1020.76 ± 1.5
308.15 K, x1 = 0.6469 | 995.19 ± 1.5 | 1000.13 ± 1.5 | 1005.03 ± 1.5 | 1009.68 ± 1.5 | 1014.14 ± 1.5 | 1018.48 ± 1.5 | 1022.55 ± 1.5 | 1026.24 ± 1.5 | 1029.87 ± 1.5
308.15 K, x1 = 0.6993 | 1004.82 ± 1.5 | 1009.76 ± 1.5 | 1014.62 ± 1.5 | 1019.27 ± 1.5 | 1023.74 ± 1.5 | 1028.03 ± 1.5 | 1032.11 ± 1.5 | 1035.8 ± 1.5 | 1039.42 ± 1.5
308.15 K, x1 = 0.7496 | 1013.47 ± 1.5 | 1018.4 ± 1.5 | 1023.27 ± 1.5 | 1027.93 ± 1.5 | 1032.35 ± 1.5 | 1036.65 ± 1.5 | 1040.72 ± 1.5 | 1044.41 ± 1.5 | 1048.05 ± 1.5
308.15 K, x1 = 0.799 | 1021.43 ± 1.5 | 1026.37 ± 1.5 | 1031.19 ± 1.5 | 1035.85 ± 1.5 | 1040.27 ± 1.5 | 1044.57 ± 1.5 | 1048.66 ± 1.5 | 1052.34 ± 1.5 | 1055.98 ± 1.6
308.15 K, x1 = 0.837 | 1027.27 ± 1.5 | 1032.2 ± 1.5 | 1037.04 ± 1.5 | 1041.64 ± 1.5 | 1046.06 ± 1.5 | 1050.37 ± 1.5 | 1054.46 ± 1.5 | 1058.14 ± 1.6 | 1061.73 ± 1.6
308.15 K, x1 = 0.9093 | 1037.72 ± 1.5 | 1042.65 ± 1.5 | 1047.49 ± 1.5 | 1052.1 ± 1.5 | 1056.52 ± 1.6 | 1060.79 ± 1.6 | 1064.88 ± 1.6 | 1068.56 ± 1.6 | 1072.16 ± 1.6
308.15 K, x1 = 0.9239 | 1039.75 ± 1.5 | 1044.68 ± 1.5 | 1049.52 ± 1.5 | 1054.13 ± 1.5 | 1058.56 ± 1.6 | 1062.82 ± 1.6 | 1066.87 ± 1.6 | 1070.55 ± 1.6 | 1074.15 ± 1.6
308.15 K, x1 = 0.9575 | 1044.31 ± 1.5 | 1049.24 ± 1.5 | 1054.08 ± 1.5 | 1058.69 ± 1.6 | 1063.12 ± 1.6 | 1067.39 ± 1.6 | 1071.43 ± 1.6 | 1075.12 ± 1.6 | 1078.72 ± 1.6
308.15 K, x1 = 0.9861 | 1048.07 ± 1.5 | 1053 ± 1.5 | 1057.85 ± 1.6 | 1062.46 ± 1.6 | 1066.89 ± 1.6 | 1071.16 ± 1.6 | 1075.26 ± 1.6 | 1078.94 ± 1.6 | 1082.54 ± 1.6
308.15 K, x1 = 1 | 1049.91 ± 0.56 | 1054.84 ± 0.56 | 1059.69 ± 0.57 | 1064.3 ± 0.58 | 1068.73 ± 0.59 | 1073 ± 0.6 | 1077.1 ± 0.61 | 1080.78 ± 0.62 | 1084.38 ± 0.63
